Measured values as given in ChEMBL document CHEMBL5331051, “Cationic, amphipathic small molecules based on a triazine-piperazine-triazine scaffold as a new class of antimicrobial agents” (Eur J Med Chem, 2022).
Calls of active or inactive are those of the source. The rule behind the calls is not given here.

How the values were obtained:
Escherichia coli [1] = experiment: Antibacterial activity against Escherichia coli KCTC 1682 strain assessed as bacterial growth inhibition measured at 18 to 24 hrs in presence of 2.5 mM CaCl2 by microdilution assay; assay type: functional; conditions: time 18-24 hrs
Staphylococcus aureus [2] = experiment: Antibacterial activity against Staphylococcus aureus KCTC 1621 strain assessed as bacterial growth inhibition measured at 18 to 24 hrs in presence of 20% human serum by microdilution assay; assay type: functional; conditions: time 18-24 hrs
Staphylococcus aureus [3] = experiment: Potency index, ratio of melittin MIC to test compound MIC against methicillin-resistant Staphylococcus aureus CCARM 3089 assessed as bacterial growth inhibition measured at 18 to 24 hrs by microdilution assay; assay type: functional; conditions: time 18-24 hrs
Staphylococcus aureus [4] = experiment: Potency index, ratio of melittin MIC to test compound MIC against methicillin-resistant Staphylococcus aureus CCARM 3090 assessed as bacterial growth inhibition measured at 18 to 24 hrs by microdilution assay; assay type: functional; conditions: time 18-24 hrs
Staphylococcus aureus [5] = experiment: Potency index, ratio of melittin MIC to test compound MIC against methicillin-resistant Staphylococcus aureus CCARM 3095 assessed as bacterial growth inhibition measured at 18 to 24 hrs by microdilution assay; assay type: functional; conditions: time 18-24 hrs
Staphylococcus aureus [6] = experiment: Synergistic antibacterial activity against methicillin-resistant Staphylococcus aureus CCARM 3089 strain assessed as chloramphenicol MIC by checkerboard assay; assay type: functional
Staphylococcus aureus [7] = experiment: Synergistic antibacterial activity against methicillin-resistant Staphylococcus aureus CCARM 3089 strain assessed as bacterial growth inhibition in presence of chloramphenicol by checkerboard assay; assay type: functional
Staphylococcus aureus [8] = experiment: Synergistic antibacterial activity against methicillin-resistant Staphylococcus aureus CCARM 3089 strain assessed as fractional inhibitory concentration in presence of chloramphenicol by checkerboard assay; assay type: functional
Staphylococcus aureus [9] = experiment: Synergistic antibacterial activity against multidrug-resistant Staphylococcus aureus CCARM 3089 strain assessed as chloramphenicol fractional inhibitory concentration by checkerboard assay; assay type: functional
Staphylococcus aureus [10] = experiment: Additive antibacterial activity against multidrug-resistant Staphylococcus aureus CCARM 3089 strain assessed as chloramphenicol fractional inhibitory concentration by checkerboard assay; assay type: functional
Staphylococcus aureus [11] = experiment: Synergistic antibacterial activity against multidrug-resistant Staphylococcus aureus CCARM 3089 strain assessed as fractional inhibitory concentration index in presence of chloramphenicol by checkerboard assay; assay type: functional
[12] = Drug localization in Escherichia coli KCTC 1682 cytoplasm incubated for 0.5 hrs by CDFA based confocal laser scanning microscopic analysis; assay type: ADME, subcellular
Pseudomonas aeruginosa [13] = experiment: Synergistic bactericidal activity against multidrug-resistant Pseudomonas aeruginosa CCARM 2095 at 0.5 times MIC measured after 60 mins in presence of 0.5 times MIC of chloramphenicol by time-kill kinetics assay; assay type: functional, organism-based
Pseudomonas aeruginosa [14] = experiment: Synergistic bactericidal activity against multidrug-resistant Pseudomonas aeruginosa CCARM 2095 at 0.5 times MIC measured after 60 mins in presence of 0.5 times MIC of ciprofloxacin by time-kill kinetics assay; assay type: functional, organism-based
Pseudomonas aeruginosa [15] = experiment: Synergistic bactericidal activity against multidrug-resistant Pseudomonas aeruginosa CCARM 2095 at 0.5 times MIC measured after 60 mins in presence of 0.5 times MIC of oxacillin by time-kill kinetics assay; assay type: functional, organism-based
Pseudomonas aeruginosa [16] = experiment: Bactericidal activity against multidrug-resistant Pseudomonas aeruginosa CCARM 2095 measured after 24 hrs by time-kill kinetics assay; assay type: functional, organism-based
Pseudomonas aeruginosa [17] = experiment: Antibiofilm activity against multidrug-resistant Pseudomonas aeruginosa assessed as bacterial growth inhibition at 1 ug/ml relative to control; assay type: functional
Escherichia coli [18] = experiment: Antibacterial activity against Escherichia coli assessed as bacterial growth inhibition measured at 18 to 24 hrs in presence of CDFA based microdilution assay; assay type: functional; conditions: time 18-24 hrs
Pseudomonas aeruginosa [19] = experiment: Bacteriostatic activity against multidrug-resistant Pseudomonas aeruginosa CCARM 2095 measured after 24 hrs by time-kill kinetics assay; assay type: functional, organism-based
Pseudomonas aeruginosa [20] = experiment: Additive antibacterial activity against multidrug-resistant Pseudomonas aeruginosa CCARM 2095 strain assessed as chloramphenicol MIC by checkerboard assay; assay type: functional
Pseudomonas aeruginosa [21] = experiment: Additive antibacterial activity against multidrug-resistant Pseudomonas aeruginosa CCARM 2095 strain assessed as ciprofloxacin MIC by checkerboard assay; assay type: functional
Pseudomonas aeruginosa [22] = experiment: Additive antibacterial activity against multidrug-resistant Pseudomonas aeruginosa CCARM 2095 strain assessed as Oxacillin MIC by checkerboard assay; assay type: functional
Pseudomonas aeruginosa [23] = experiment: Additive antibacterial activity against multidrug-resistant Pseudomonas aeruginosa CCARM 2095 strain assessed as bacterial growth inhibition in presence of chloramphenicol by checkerboard assay; assay type: functional
Pseudomonas aeruginosa [24] = experiment: Additive antibacterial activity against multidrug-resistant Pseudomonas aeruginosa CCARM 2095 strain assessed as bacterial growth inhibition in presence of oxacillin by checkerboard assay; assay type: functional
Pseudomonas aeruginosa [25] = experiment: Additive antibacterial activity against multidrug-resistant Pseudomonas aeruginosa CCARM 2095 strain assessed as chloramphenicol fractional inhibitory concentration by checkerboard assay; assay type: functional
Pseudomonas aeruginosa [26] = experiment: Additive antibacterial activity against multidrug-resistant Pseudomonas aeruginosa CCARM 2095 strain assessed as ciprofloxacin fractional inhibitory concentration by checkerboard assay; assay type: functional
Pseudomonas aeruginosa [27] = experiment: Additive antibacterial activity against multidrug-resistant Pseudomonas aeruginosa CCARM 2095 strain assessed as oxacillin fractional inhibitory concentration by checkerboard assay; assay type: functional
Pseudomonas aeruginosa [28] = experiment: Additive antibacterial activity against multidrug-resistant Pseudomonas aeruginosa CCARM 2095 strain assessed as fractional inhibitory concentration in presence of oxacillin by checkerboard assay; assay type: functional
Pseudomonas aeruginosa [29] = experiment: Additive antibacterial activity against multidrug-resistant Pseudomonas aeruginosa CCARM 2095 strain assessed as fractional inhibitory concentration index in presence of ciprofloxacin by checkerboard assay; assay type: functional
Pseudomonas aeruginosa [30] = experiment: Additive antibacterial activity against multidrug-resistant Pseudomonas aeruginosa CCARM 2095 strain assessed as fractional inhibitory concentration index in presence of oxacillin by checkerboard assay; assay type: functional
Staphylococcus aureus [31] = experiment: Additive antibacterial activity against methicillin-resistant Staphylococcus aureus CCARM 3089 strain assessed as oxacillin MIC by checkerboard assay; assay type: functional
Staphylococcus aureus [32] = experiment: Additive antibacterial activity against methicillin-resistant Staphylococcus aureus CCARM 3089 strain assessed as bacterial growth inhibition in presence of oxacillin by checkerboard assay; assay type: functional
Staphylococcus aureus [33] = experiment: Antibacterial activity against multidrug-resistant Staphylococcus aureus CCARM 3089 strain assessed as fractional inhibitory concentration by checkerboard assay; assay type: functional
Staphylococcus aureus [34] = experiment: Antibacterial activity against multidrug-resistant Staphylococcus aureus CCARM 3089 strain assessed as ciprofloxacin fractional inhibitory concentration by checkerboard assay; assay type: functional
Staphylococcus aureus [35] = experiment: Antibacterial activity against multidrug-resistant Staphylococcus aureus CCARM 3089 strain assessed as fractional inhibitory concentration index in presence of ciprofloxacin by checkerboard assay; assay type: functional
Staphylococcus aureus [36] = experiment: Antibacterial activity against methicillin-resistant Staphylococcus aureus CCARM 3089 strain assessed as bacterial growth inhibition in presence of ciprofloxacin by checkerboard assay; assay type: functional
Pseudomonas aeruginosa [37] = experiment: Antibacterial activity against multidrug-resistant Pseudomonas aeruginosa CCARM 2095 strain assessed as bacterial growth inhibition by checkerboard assay; assay type: functional
Pseudomonas aeruginosa [38] = experiment: Antibacterial activity against multidrug-resistant Pseudomonas aeruginosa CCARM 2095 strain assessed as fractional inhibitory concentration by checkerboard assay; assay type: functional
Pseudomonas aeruginosa [39] = experiment: Antibacterial activity against multidrug-resistant Pseudomonas aeruginosa CCARM 2095 strain assessed as fractional inhibitory concentration index in presence of chloramphenicol by checkerboard assay; assay type: functional
Staphylococcus aureus [40] = experiment: Additive antibacterial activity against methicillin-resistant Staphylococcus aureus CCARM 3089 strain assessed as ciprofloxacin MIC by checkerboard assay; assay type: functional
Staphylococcus aureus [41] = experiment: Additive antibacterial activity against methicillin-resistant Staphylococcus aureus CCARM 3089 strain assessed as bacterial growth inhibition in presence of ciprofloxacin by checkerboard assay; assay type: functional

| SMILES | MIC (Escherichia coli [1]) [µM] | MIC (Staphylococcus aureus [2]) [µM] | Ratio (Staphylococcus aureus [3]) | Ratio (Staphylococcus aureus [4]) | Ratio (Staphylococcus aureus [5]) | MIC (Staphylococcus aureus [6]) [µg/mL] | MIC (Staphylococcus aureus [7]) [µg/mL] | FIC (Staphylococcus aureus [8]) | FIC (Staphylococcus aureus [9]) | FIC (Staphylococcus aureus [10]) | fractional inhibitory concentration index (FICI) (Staphylococcus aureus [11]) | MIC (Pseudomonas aeruginosa [22]) [µg/mL] | MIC (Pseudomonas aeruginosa [24]) [µg/mL] | FIC (Pseudomonas aeruginosa [27]) | FIC (Pseudomonas aeruginosa [28]) | fractional inhibitory concentration index (FICI) (Pseudomonas aeruginosa [30]) | also measured |
| --- | --- | --- | --- | --- | --- | --- | --- | --- | --- | --- | --- | --- | --- | --- | --- | --- | --- |
| NCCCN(CCCN)c1nc(NCc2ccccc2)nc(N2CC(Cc3ccccc3)N(c3nc(NCc4ccccc4)nc(N(CCCN)CCCN)n3)CC2Cc2ccccc2)n1 (stereo not drawn) | 5 | 10 | 2 | 2 | 2 | 128 | 1 | 0.5 | 0.25 | 0.25 | 0.5 |  |  |  |  |  |  |
| NCCN(CCN)c1nc(NCc2ccccc2)nc(N2CC(Cc3ccccc3)N(c3nc(NCc4ccccc4)nc(N(CCN)CCN)n3)CC2Cc2ccccc2)n1 (stereo not drawn) | 5.4 | 10.8 | 2 | 2 | 2 | 128 | 2 | 0.5 | 0.25 | 0.25 | 0.5 |  |  |  |  |  | Drug uptake [12]: Active; Activity (Pseudomonas aeruginosa [13]): Active; Activity (Pseudomonas aeruginosa [14]): Active; Activity (Pseudomonas aeruginosa [15]): Active; Activity (Pseudomonas aeruginosa [16]): inactive; inhibition at 1 µg/mL (Pseudomonas aeruginosa [17]): 50%; MIC (Escherichia coli [18]): 8 µg/mL; Activity (Pseudomonas aeruginosa [19]): inactive |
| N=C(N)NCCNc1nc(NCCNC(=N)N)nc(N2CC(Cc3ccccc3)N(c3nc(NCCNC(=N)N)nc(NCCNC(=N)N)n3)CC2Cc2ccccc2)n1 (stereo not drawn) | 9.7 | 9.6 |  |  |  |  |  |  |  |  |  | 256 | 16 | 0.25 | 0.5 | 0.75 | MIC (Pseudomonas aeruginosa [20]): 256 µg/mL; MIC (Pseudomonas aeruginosa [21]): 512 µg/mL; MIC (Pseudomonas aeruginosa [23]): 8 µg/mL; FIC (Pseudomonas aeruginosa [25]): 0.25; FIC (Pseudomonas aeruginosa [26]): 0.5; fractional inhibitory concentration index (FICI) (Pseudomonas aeruginosa [29]): 1; MIC (Staphylococcus aureus [31]): 128 µg/mL; MIC (Staphylococcus aureus [32]): 4 µg/mL; FIC (Staphylococcus aureus [33]): 1; FIC (Staphylococcus aureus [34]): 0.25; fractional inhibitory concentration index (FICI) (Staphylococcus aureus [35]): 1.25; MIC (Staphylococcus aureus [36]): 8 µg/mL |
| NCCNc1nc(NCCN)nc(N2CC(Cc3ccccc3)N(c3nc(NCCN)nc(NCCN)n3)CC2Cc2ccccc2)n1 (stereo not drawn) | 6.1 | 12.2 |  |  |  |  |  |  |  |  |  | 512 | 8 | 0.5 | 0.5 | 1 | MIC (Pseudomonas aeruginosa [37]): 16 µg/mL; FIC (Pseudomonas aeruginosa [38]): 0.25; fractional inhibitory concentration index (FICI) (Pseudomonas aeruginosa [39]): 1.25; MIC (Staphylococcus aureus [40]): 128 µg/mL; MIC (Staphylococcus aureus [41]): 16 µg/mL |
| NCCCCNc1nc(NCCCCN)nc(N2CC(Cc3ccccc3)N(c3nc(NCCCCN)nc(NCCCCN)n3)CC2Cc2ccccc2)n1 (stereo not drawn) | 10.4 | 10.4 |  |  |  |  |  |  |  |  |  |  |  |  |  |  |  |
